Test results from patent US20230285405A1, “Pharmaceuticals for Treating or Preventing Nidoviruses and Picornaviruses” (priority 2020, published 2023).
Where a name gives a salt, the structure may show the parent alone. Read-outs that look alike come from different tables or passages of the source.

How the values were obtained:
A549-mRuby cells = assay: Drug screening: effect on cell growth (cell number day 4 / day 0); conditions: 10 μM drug; for toxic_1 / Growth_1: number of cells at day 4 divided by number of cells at day 0: repeat #1; for toxic_2 / Growth_2: number of cells at day 4 divided by number of cells at day 0: repeat #2
Procedure, shortened: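 A549 cells carrying an H2B-mRuby reporter were infected with OC43 at MOI 0.3 for 1 h at 33° C, then given drug at 10 μM final. Cell numbers were counted by imaging at day 0 and again at day 4 after 4 days at 33° C, 5% CO2, with the screen run twice.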

OC43 = assay: Drug screening: OC43 nucleoprotein staining in infected A549-mRuby cells; assay type: cell-based, human beta coronavirus OC43; conditions: 10 μM drug; for activity at 10 µM: Betacoronavirus 1, OC43, 96 h; for activity at 10 µM / OC43_mean / OC43_1: % staining of OC43 in screen repeat #1 / OC43_2: % staining of OC43 in screen repeat #2: MOI 0.3, 4 days
Procedure, shortened: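 A549 cells expressing H2B-mRuby infected with OC43 at MOI 0.3 for 1 h at 33° C, then drugs added at 10 μM final and incubated 4 days at 33° C. Viral nucleoprotein immunostained and imaged; intensity normalized to cell number and no-drug controls (=100). Hits reduced staining >3 SD in both repeats without toxicity.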

[1] = OC43 staining normalized to no-drug controls, mean of the two screen repeats, read-out: OC43_mean
[2] = normalized to no-drug controls in the same plate, repeat #1, read-out: OC43_1: % staining of OC43 in screen repeat #1
[3] = normalized to no-drug controls in the same plate, repeat #2, read-out: OC43_2: % staining of OC43 in screen repeat #2
[4] = OC43 staining normalized to no-drug controls, mean of the two screen repeats
[5] = normalized to no-drug controls in the same plate, repeat #1
[6] = normalized to no-drug controls in the same plate, repeat #2

| SMILES | toxic_1 (A549-mRuby cells) | Growth_1: number of cells at day 4 divided by number of cells at day 0 (A549-mRuby cells; hydrochloride) | toxic_2 (A549-mRuby cells) | Growth_2: number of cells at day 4 divided by number of cells at day 0 (A549-mRuby cells; hydrochloride) | hit_1 (OC43; repeat #1) | hit_2 (OC43; repeat #2) | activity at 10 µM (OC43; [1]) | activity at 10 µM (OC43; [2]) | activity at 10 µM (OC43; [3]) | Growth_1: number of cells at day 4 divided by number of cells at day 0 (A549-mRuby cells) | Growth_2: number of cells at day 4 divided by number of cells at day 0 (A549-mRuby cells) | OC43_mean (OC43; [4]) | OC43_1: % staining of OC43 in screen repeat #1 (OC43; [5]) | OC43_2: % staining of OC43 in screen repeat #2 (OC43; [6]) | Growth_1: number of cells at day 4 divided by number of cells at day 0 (A549-mRuby cells; ditosylate monohydrate) | Growth_2: number of cells at day 4 divided by number of cells at day 0 (A549-mRuby cells; ditosylate monohydrate) | OC43_1: % staining of OC43 in screen repeat #1 (OC43; normalized to no-drug controls in the same plate, repeat #1, ditosylate monohydrate) |
| --- | --- | --- | --- | --- | --- | --- | --- | --- | --- | --- | --- | --- | --- | --- | --- | --- | --- |
| COc1cc2ncnc(Nc3ccc(F)c(Cl)c3)c2cc1OCCCN1CCOCC1 [Gefitinib hydrochloride] | 0 | 3.5 | 0 | 3.3 | 1 | 1 | 23.9% | 20% | 27.8% | – | – | – | – | – | – | – | – |
| N=C(N)N/N=C/c1c(Cl)cccc1Cl [Guanabenz Acetate] | 0 | – | 0 | – | 1 | 1 | 34.6% | 31.1% | 38.1% | 5.3 | 4.4 | – | – | – | – | – | – |
| CCN(CCO)CCCC(C)Nc1ccnc2cc(Cl)ccc12 (stereo not drawn) [Hydroxychloroquine Sulfate] | 0 | – | 0 | – | 1 | 1 | 16.2% | 17.8% | 14.6% | 5.1 | 4.9 | – | – | – | – | – | – |
| CS(=O)(=O)CCNCc1ccc(-c2ccc3ncnc(Nc4ccc(OCc5cccc(F)c5)c(Cl)c4)c3c2)o1.Cc1ccc(S(=O)(=O)O)cc1.Cc1ccc(S(=O)(=O)O)cc1 [Lapatinib (GW-572016) Ditosylate] | 0 | – | 0 | – | 1 | 1 | – | – | – | 5.0 | 5.9 | 24.8% | 17.6% | 32.0% | – | – | – |
| CS(=O)(=O)CCNCc1ccc(-c2ccc3ncnc(Nc4ccc(OCc5cccc(F)c5)c(Cl)c4)c3c2)o1 [Lapatinib ditosylate monohydrate] | 0 | – | 0 | – | 1 | 1 | 16.6% | – | 9.5% | – | – | – | – | – | 4.2 | 4.2 | 23.8% |
| COc1ccc(CN2CCN(C(c3ccc(F)cc3)c3ccc(F)cc3)CC2)c(OC)c1OC.Cl.Cl [Lomerizine 2HCl] | 0 | – | 0 | – | 1 | 1 | – | – | – | 4.7 | 5.3 | 39.9% | 56.5% | 23.3% | – | – | – |
| CNCCCC12CCC(c3ccccc31)c1ccccc12 [Maprotiline HCl] | 0 | – | 0 | – | 1 | 1 | 26% | 27% | 25.1% | 3.5 | 3.1 | – | – | – | – | – | – |
| CN1CCCCC1CCN1c2ccccc2Sc2ccc([S+](C)[O-])cc21 (stereo not drawn) [Mesoridazine Besylate] | 0 | – | 0 | – | 1 | 1 | 20.3% | 15.6% | 25% | 4.7 | 4.7 | – | – | – | – | – | – |
| C[C@@H]1[C@H](O)[C@@H](C)/C=C/C=C/CC/C=C/C=C/C=C/C=C/C(O[C@H]2O[C@H](C)[C@@H](O)[C@H](N)[C@@H]2O)CC2O[C@](O)(CC(O)C(O)CCC(O)CC(O)CC(O)CC(=O)O[C@H]1C)CC(O)C2C(=O)O (stereo partly drawn) [Nystatin (Fungicidin), Nystatin] | 0 | – | 0 | – | 1 | 1 | – | – | – | 4.6 | 5.9 | 23.3% | 27.8% | 18.8% | – | – | – |
